Experimental data reported in US10092551B2, “Spiro-thiazolones” (Hoffmann-La Roche Inc., priority 2014, dated 2018).

Each compound was assayed against human V1a receptor (Homo sapiens (Human), UniProt P37288) (assay: human V1a receptor binding studies (3H-Vasopressin, SPA beads)). Conditions: membranes of HEK293 cells transiently transfected with human V1a receptor, Ki by Cheng-Prussoff.
Description: The human V1a receptor was cloned by RT-PCR from total human liver RNA. The coding sequence was subcloned in an expression vector after sequencing to confirm the identity of the amplified sequence. […] Cell membranes were prepared from HEK293 cells transiently transfected with the expression vector and grown in 20 liter fermenters with the following protocol.
50 g of cells are re-suspended in 30 ml freshly prepared ice cold Lysis buffer (50 mM HEPES, 1 mM EDTA, 10 mM MgCl2 adjusted to pH=7.4+complete cocktail of protease inhibitor (Roche Diagnostics)). Homogenized with Polytron for 1 min and sonicated on ice for 2×2 minutes at 80% intensity (Vibracell sonicator). The preparation is centrifuged 20 min at 500 g at 4° C., the pellet is discarded and the supernatant centrifuged 1 hour at 43,000 g at 4° C. (19,000 rpm). The pellet is re-suspended in 12.5 ml Lysis buffer+12.5 ml Sucrose 20% and homogenized using a Polytron for 1-2 min. The protein concentration is determined by the Bradford method and aliquots are stored at −80° C. until use. For binding studies 60 mg Yttrium silicate SPA beads (Amersham) are mixed with an aliquot of membrane in binding buffer (50 mM Tris, 120 mM NaCl, 5 mM KCl, 2 mM CaCl2, 10 mM MgCl2) for 15 minutes with mixing. 50 μl of bead/membrane mixture is then added to each well of a 96 well plate, followed by 50 μl of 4 nM 3H-Vasopressin (American Radiolabeled Chemicals). For total binding measurement 100 μl of binding buffer are added to the respective wells, for non-specific binding 100 μl of 8.4 mM cold vasopressin and for compound testing 100 μl of a serial dilution of each compound in 2% DMSO. The plate is incubated 1 h at room temperature, centrifuged 1 min at 1000 g and counted on a Packard Top-Count. Non-specific binding counts are subtracted from each well and data is normalized to the maximum specific binding set at 100%. To calculate an IC 50 the curve is fitted using a non-linear regression model (XLfit) and the Ki is calculated using the Cheng-Prussoff equation.

Chain of human V1a receptor (P37288 whole entry): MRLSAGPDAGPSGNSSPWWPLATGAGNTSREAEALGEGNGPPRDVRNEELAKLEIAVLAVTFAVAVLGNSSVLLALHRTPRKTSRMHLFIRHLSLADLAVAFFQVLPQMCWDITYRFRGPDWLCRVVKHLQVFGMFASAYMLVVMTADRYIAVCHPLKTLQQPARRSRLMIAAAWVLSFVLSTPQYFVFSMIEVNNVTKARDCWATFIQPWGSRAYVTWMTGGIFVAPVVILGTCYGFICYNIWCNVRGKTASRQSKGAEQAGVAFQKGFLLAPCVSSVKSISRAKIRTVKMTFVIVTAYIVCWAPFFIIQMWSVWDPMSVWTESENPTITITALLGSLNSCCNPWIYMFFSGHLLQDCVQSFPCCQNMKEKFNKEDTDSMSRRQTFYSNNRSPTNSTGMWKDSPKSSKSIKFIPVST

SMILES | pKi hV1a
C/C(=C1/SC(N2CCC3(CC2)OCc2ccccc23)=NC1=O)c1ccnc(Cl)c1 [Example 48, (5E/Z)-5-[1-(2-chloropyridin-4-yl)ethylidene]-2-(1′H,3H-spiro[2-benzofuran-1,4′-piperidin]-1′-yl)-1,3-thiazol-4(5H)-one] | 8.6
C/C(=C1\SC(N2CCC3(CC2)OCc2ccccc23)=NC1=O)c1ccc(Cl)cc1 [Example 27, (5E)-5-[1-(4-chlorophenyl)ethylidene]-2-(1′H,3H-spiro[2-benzofuran-1,4′-piperidin]-1′-yl)-1,3-thiazol-4(5H)-one] | 8.3
CC(C)(C)[Si](C)(C)OC/C(=C1/SC(N2CCC3(CC2)OCc2ccccc23)=NC1=O)c1ccccc1 [Example 123, (5E)-5-(2-{[tert-butyl(dimethyl)silyl]oxy}-1-phenylethylidene)-2-(1′H,3H-spiro[2-benzofuran-1,4′-piperidin]-1′-yl)-1,3-thiazol-4(5H)-one] | 8.5
C/C(=C1/SC(N2CCC3(CC2)OCc2ccccc23)=NC1=O)c1ccccc1Cl [Example 14, (5E/Z)-5-[1-(2-chlorophenyl)ethylidene]-2-(1′H,3H-spiro[2-benzofuran-1,4′-piperidin]-1′-yl)-1,3-thiazol-4(5H)-one] | 8.5
O=C1N=C(N2CCC3(CC2)OCc2ccccc23)SC1=C1CCOCC1 [Example 44, 2-(1′H,3H-spiro[2-benzofuran-1,4′-piperidin]-1′-yl)-5-(tetrahydro-4H-pyran-4-ylidene)-1,3-thiazol-4(5H)-one] | 8.1
CC/C(=C1/SC(N2CCC3(CC2)OCc2ccccc23)=NC1=O)c1ccc(Cl)cc1 [Example 24, (5Z)-5-[1-(4-chlorophenyl)propylidene]-2-(1′H,3H-spiro[2-benzofuran-1,4′-piperidin]-1′-yl)-1,3-thiazol-4(5H)-one] | 9.1
C/C(=C1/SC(N2CCC3(CC2)OCc2ccccc23)=NC1=O)c1ccccc1F [Example 57, (5Z)-5-[1-(2-fluorophenyl)ethylidene]-2-(1′H,3H-spiro[2-benzofuran-1,4′-piperidin]-1′-yl)-1,3-thiazol-4(5H)-one] | 9.0
C/C(CF)=C1/SC(N2CCC3(CC2)OCc2ccccc23)=NC1=O [Example 51, (5E/Z)-5-(1-fluoropropan-2-ylidene)-2-(1′H,3H-spiro[2-benzofuran-1,4′-piperidin]-1′-yl)-1,3-thiazol-4(5H)-one] | 7.9
O=C1N=C(N2CCC3(CC2)OCc2ccccc23)S/C1=C1/CCCc2ccccc21 [Example 45, (5Z)-5-(3,4-dihydronaphthalen-1(2H)-ylidene)-2-(1′H,3H-spiro[2-benzofuran-1,4′-piperidin]-1′-yl)-1,3-thiazol-4(5H)-one] | 8.7
CC(C)(C)[Si](C)(C)OC/C(=C1/SC(N2CCC3(CC2)OCc2ccccc23)=NC1=O)c1ccc(Cl)nc1 [Example 129, (5E)-5-[2-{[tert-butyl(dimethyl)silyl]oxy}-1-(6-chloropyridin-3-yl)ethylidene]-2-(1′H,3H-spiro[2-benzofuran-1,4′-piperidin]-1′-yl)-1,3-thiazol-4(5H)-one] | 8.2
C/C(=C1/SC(N2CCC3(CC2)OCc2ccccc23)=NC1=O)c1ccc(Cl)nc1 [Example 49, (5E/Z)-5-[1-(6-chloropyridin-3-yl)ethylidene]-2-(1′H,3H-spiro[2-benzofuran-1,4′-piperidin]-1′-yl)-1,3-thiazol-4(5H)-one] | 9.1

Next, values leading:

pKi hV1a | SMILES
7.5 | Cc1cc(/C=C2\SC(N3CCC4(CC3)OCc3ccccc34)=NC2=O)no1 [Example 91, 5-[(5-methyl-1,2-oxazol-3-yl)methylidene]-2-(1′H,3H-spiro[2-benzofuran-1,4′-piperidin]-1′-yl)-1,3-thiazol-4(5H)-one]
7.2 | O=C1N=C(N2CCC3(CC2)OCc2ccccc23)SC1=C(C1CCCCC1)C1CCCCC1 [Example 125, 5-(dicyclohexylmethylidene)-2-(1′H,3H-spiro[2-benzofuran-1,4′-piperidin]-1′-yl)-1,3-thiazol-4(5H)-one]
9.3 | CC(C)(C)OC(=O)NC/C(=C1/SC(N2CCC3(CC2)OCc2ccccc23)=NC1=O)c1ccccc1 [Example 159, tert-butyl {(2E/Z)-2-[4-oxo-2-(1′H,3H-spiro[2-benzofuran-1,4′-piperidin]-1′-yl)-1,3-thiazol-5(4H)-ylidene]-2-phenylethyl}carbamate]
8.7 | CC(=C1SC(N2CCC3(CC2)OCc2ccccc23)=NC1=O)c1c(C)noc1C (stereo in doubt) [Example 105, (5E)-5-[1-(3,5-dimethyl-1,2-oxazol-4-yl)ethylidene]-2-(1′H,3H-spiro[2-benzofuran-1,4′-piperidin]-1′-yl)-1,3-thiazol-4(5H)-one]
7.6 | C/C(=C1/SC(N2CCC3(CC2)OCc2ccccc23)=NC1=O)c1ccnc(C)c1 [Example 77, (5E/Z)-5-[1-(2-methylpyridin-4-yl)ethylidene]-2-(1′H,3H-spiro[2-benzofuran-1,4′-piperidin]-1′-yl)-1,3-thiazol-4(5H)-one]
7.6 | O=C1N=C(N2CCC3(CC2)OCc2ccccc23)S/C1=C1\C=CCC1 [Example 128, (5Z)-5-(cyclopent-2-en-1-ylidene)-2-(1′H,3H-spiro[2-benzofuran-1,4′-piperidin]-1′-yl)-1,3-thiazol-4(5H)-one]
8.8 | [2H]C([2H])([2H])/C(=C1/SC(N2CCC3(CC2)OCc2ccccc23)=NC1=O)c1ccc(C)nc1 [Example 169, (5Z)-5-[1-(6-methylpyridin-3-yl)(^2H3)ethylidene]-2-(1′H,3H-spiro[2-benzofuran-1,4′-piperidin]-1′-yl)-1,3-thiazol-4(5H)-one]
8.3 | CC(C)CC(CC(C)C)=C1SC(N2CCC3(CC2)OCc2ccccc23)=NC1=O [Example 116, 5-(2,6-dimethylheptan-4-ylidene)-2-(1′H,3H-spiro[2-benzofuran-1,4′-piperidin]-1′-yl)-1,3-thiazol-4(5H)-one]
8.8 | C/C(=C1/SC(N2CCC3(CC2)OCc2ccccc23)=NC1=O)c1cccnc1Cl [Example 83, (5Z)-5-[1-(2-chloropyridin-3-yl)ethylidene]-2-(1′H,3H-spiro[2-benzofuran-1,4′-piperidin]-1′-yl)-1,3-thiazol-4(5H)-one]
8.2 | O=C1N=C(N2CCC3(CC2)OCc2ncccc23)S/C1=C1/COCc2ccccc21 [Example 168, (5E/Z)-5-(1H-isochromen-4(3H)-ylidene)-2-(1′H,7H-spiro[furo[3,4-b]pyridine-5,4′-piperidin]-1′-yl)-1,3-thiazol-4(5H)-one]
9.0 | COC/C(=C1/SC(N2CCC3(CC2)OCc2ccccc23)=NC1=O)c1ccccc1 [Example 92, (5E)-5-(2-methoxy-1-phenylethylidene)-2-(1′H,3H-spiro[2-benzofuran-1,4′-piperidin]-1′-yl)-1,3-thiazol-4(5H)-one]
8.9 | C/C(=C1/SC(N2CCC3(CC2)OCc2ccccc23)=NC1=O)c1oc(C)nc1C [Example 86, (5E/Z)-5-[1-(2,4-dimethyl-1,3-oxazol-5-yl)ethylidene]-2-(1′H,3H-spiro[2-benzofuran-1,4′-piperidin]-1′-yl)-1,3-thiazol-4(5H)-one]
